Measured values reported in patent US9783532B2, “Molecules having certain pesticidal utilities, and intermediates, compositions, and processes related thereto” (Dow AgroSciences LLC, priority 2013, dated 2017).
Read-outs that look alike come from different tables or passages of the source.

How the values were obtained:
[1] = tested on: Cabbage Looper (Trichoplusia ni) ("CL"); experiment: Bioassay on cabbage looper (CL), 128-well diet tray assay; format: in vivo; details: for pest or weed control at 50 µg/cm2: activity rating class, read-out: CL (Biological Results, Insect species); for mortality at 50 µg/cm2: 168 h, 50 μg/cm^2 on artificial diet, second instar CL larvae, 25° C., five to seven days, average of eight wells, read-out: CL % Control (or Mortality) rating
Description: (§1) Certain molecules disclosed in this document were tested against BAW and CEW using procedures described in the following examples. In the reporting of the results, the “BAW & CL Rating Table” was used (See Table Section). BIOASSAYS ON BAW
Bioassays on CL were conducted using a 128-well diet tray assay. one to five second instar CL larvae were placed in each well (3 mL) of the diet tray that had been previously filled with 1 mL of artificial diet to which 50 μg/cm^2 of the test compound (dissolved in 50 μL of 90:10 acetone-water mixture) had been applied (to each of eight wells) and then allowed to dry. Trays were covered with a clear self-adhesive cover and held at 25° C., 14:10 light-dark for five to seven days. Percent mortality was recorded for the larvae in each well; activity in the eight wells was then averaged. The results are indicated in the table entitled “Table ABC: Biological Results” (See Table Section).

[2] = tested on: Beet Armyworm (Spodoptera exigua) ("BAW"); experiment: Bioassay on beet armyworm (BAW), 128-well diet tray assay; format: in vivo; details: for pest or weed control at 50 µg/cm2: activity rating class, read-out: BAW (Biological Results, Insect species); for mortality at 50 µg/cm2: 168 h, 50 μg/cm^2 on artificial diet, second instar BAW larvae, 25° C., five to seven days, average of eight wells, read-out: BAW % Control (or Mortality) rating
Description: as §1
Bioassays on BAW were conducted using a 128-well diet tray assay. one to five second instar BAW larvae were placed in each well (3 mL) of the diet tray that had been previously filled with 1 mL of artificial diet to which 50 μg/cm^2 of the test compound (dissolved in 50 μL of 90:10 acetone-water mixture) had been applied (to each of eight wells) and then allowed to dry. Trays were covered with a clear self-adhesive cover and held at 25° C., 14:10 light-dark for five to seven days. Percent mortality was recorded for the larvae in each well; activity in the eight wells was then averaged. The results are indicated in the table entitled “Table ABC: Biological Results” (See Table Section).

CC(C)c1ccccc1NC(=S)NC(=O)NCc1cccc(-c2ncn(-c3ccc(OC(F)(F)F)cc3)n2)c1 [FB22, 1-[(2-isopropylphenyl)carbamothioyl]-3-[[3-[1-[4-(trifluoromethoxy)phenyl]-1H-1,2,4-triazol-3-yl]phenyl]methyl]urea]
pest or weed control at 50 µg/cm2 ([1]; Table ABC (FB)): 50 to 100%
pest or weed control at 50 µg/cm2 ([2]; Table ABC (FB)): 50 to 100%

Cc1cc(-c2ncn(-c3ccc(OC(F)(F)F)cc3)n2)ccc1CCNC(=O)/N=C1\SCC(=O)N1c1cc(Cl)ccc1C(C)C [FB7, (Z)-1-(3-(5-chloro-2-isopropylphenyl)-4-oxothiazolidin-2-ylidene)-3-(2-methyl-4-(1-(4-(trifluoromethoxy)phenyl)-1H-1,2,4-triazol-3-yl)phenethyl)urea]
pest or weed control at 50 µg/cm2 ([1]; Table ABC (FB)): 50 to 100%
pest or weed control at 50 µg/cm2 ([2]; Table ABC (FB)): 50 to 100%

Cc1ccc(C(C)C)c(N2C(=O)CS/C2=N\C(=O)NCCCc2cccc(-c3ncn(-c4ccc(OC(F)(F)F)cc4)n3)c2)c1 [P124, (Z)-1-(3-(2-isopropyl-5-methylphenyl)-4-oxothiazolidin-2-ylidene)-3-(3-(3-(1-(4-(trifluoromethoxy)phenyl)-1H-1,2,4-triazol-3-yl)phenyl)propyl)urea]
mortality at 50 µg/cm2 [1]: 50 to 100%
mortality at 50 µg/cm2 [2]: 50 to 100%

COc1ccc(N2C(=O)CS/C2=N\C(=O)NCc2cccc(-c3ncn(-c4ccc(OC(F)(F)F)cc4)n3)c2)c(C)c1 [FB28, (Z)-1-(3-(4-methoxy-2-methylphenyl)-4-oxothiazolidin-2-ylidene)-3-(3-(1-(4-(trifluoromethoxy)phenyl)-1H-1,2,4-triazol-3-yl)benzyl)urea]
pest or weed control at 50 µg/cm2 ([1]; Table ABC (FB)): 50 to 100%
pest or weed control at 50 µg/cm2 ([2]; Table ABC (FB)): 50 to 100%

Cc1ccc(C(C)C)c(NC(=S)NC(=O)NCCCCc2ccc(-c3ncn(-c4ccc(OC(F)(F)F)cc4)n3)cc2)c1 [PC150, 1-[(2-isopropyl-5-methyl-phenyl)carbamothioyl]-3-[4-[4-[1-[4-(trifluoromethoxy)phenyl]-1H-1,2,4-triazol-3-yl]phenyl]butyl]urea]
pest or weed control at 50 µg/cm2 ([1]; Table ABC (PC)): 50 to 100%
pest or weed control at 50 µg/cm2 ([2]; Table ABC (PC)): 50 to 100%

CC(C)c1ccccc1N1C(=O)CS/C1=N\C(=O)NCCc1cccc(-c2ncn(-c3ccc(OC(F)(F)F)cc3)n2)c1 [P76, (Z)-1-(3-(2-isopropylphenyl)-4-oxothiazolidin-2-ylidene)-3-(3-(1-(4-(trifluoromethoxy)phenyl)-1H-1,2,4-triazol-3-yl)phenethyl)urea]
mortality at 50 µg/cm2 [1]: 50 to 100%
mortality at 50 µg/cm2 [2]: 50 to 100%

Cc1ccc(C(C)C)c(N2C(=O)C(F)S/C2=N\C(=O)NCCc2ccc(-c3ncn(-c4ccc(OC(F)(F)F)cc4)n3)cc2)c1 (stereo not shown) [FB64, (Z)-1-(5-fluoro-3-(2-isopropyl-5-methylphenyl)-4-oxothiazolidin-2-ylidene)-3-(4-(1-(4-(trifluoromethoxy)phenyl)-1H-1,2,4-triazol-3-yl)phenethyl)urea]
pest or weed control at 50 µg/cm2 ([1]; Table ABC (FB)): 50 to 100%
pest or weed control at 50 µg/cm2 ([2]; Table ABC (FB)): 50 to 100%

COc1ccc(NC(=S)NC(=O)NCCCCc2cccc(-c3ncn(-c4ccc(OC(F)(F)F)cc4)n3)c2)c(C)c1 [FB36, 1-[(4-methoxy-2-methyl-phenyl)carbamothioyl]-3-[4-[3-[1-[4-(trifluoromethoxy)phenyl]-1H-1,2,4-triazol-3-yl]phenyl]butyl]urea]
pest or weed control at 50 µg/cm2 ([1]; Table ABC (FB)): 50 to 100%
pest or weed control at 50 µg/cm2 ([2]; Table ABC (FB)): 0 to 50%

CCCc1ccc(C)cc1N1C(=O)CS/C1=N\C(=O)NCCCc1ccc(-c2ncn(-c3ccc(OC(F)(F)F)cc3)n2)cc1 [P99, P830, (Z)-1-(3-(5-methyl-2-propylphenyl)-4-oxothiazolidin-2-ylidene)-3-(3-(4-(1-(4-(trifluoromethoxy)phenyl)-1H-1,2,4-triazol-3-yl)phenyl)propyl)urea]
mortality at 50 µg/cm2 [1]: 50 to 100%
mortality at 50 µg/cm2 [2]: 50 to 100%

CCn1s/c(=N\C(=O)NCCc2ccc(-c3ncn(-c4ccc(OC(F)(F)F)cc4)n3)cc2)n(-c2ccc(OC)cc2C(C)C)c1=O [FB11, (Z)-1-(2-ethyl-4-(2-isopropyl-4-methoxyphenyl)-3-oxo-1,2,4-thiadiazolidin-5-ylidene)-3-(4-(1-(4-(trifluoromethoxy)phenyl)-1H-1,2,4-triazol-3-yl)phenethyl)urea]
pest or weed control at 50 µg/cm2 ([1]; Table ABC (FB)): 50 to 100%
pest or weed control at 50 µg/cm2 ([2]; Table ABC (FB)): 0 to 50%

CCc1ccccc1NC(=S)NC(=O)NCCCc1cccc(-c2ncn(-c3ccc(OC(F)(F)F)cc3)n2)c1 [PC119, 1-[(2-ethylphenyl)carbamothioyl]-3-[3-[3-[1-[4-(trifluoromethoxy)phenyl]-1H-1,2,4-triazol-3-yl]phenyl]propyl]urea]
pest or weed control at 50 µg/cm2 ([1]; Table ABC (PC)): 50 to 100%
pest or weed control at 50 µg/cm2 ([2]; Table ABC (PC)): 50 to 100%

Cc1ccccc1NC(=S)NC(=O)NCc1ccc(-c2ncn(-c3ccc(OC(F)(F)F)cc3)n2)cc1 [PC1, 1-(o-tolylcarbamothioyl)-3-[[4-[1-[4-(trifluoromethoxy)phenyl]-1H-1,2,4-triazol-3-yl]phenyl]methyl]urea]
pest or weed control at 50 µg/cm2 ([1]; Table ABC (PC)): 50 to 100%
pest or weed control at 50 µg/cm2 ([2]; Table ABC (PC)): 50 to 100%

CCc1cccc(C)c1NC(=S)NC(=O)NCCc1cccc(-c2ncn(-c3ccc(OC(F)(F)F)cc3)n2)c1 [PC83, 1-[(2-ethyl-6-methyl-phenyl)carbamothioyl]-3-[2-[3-[1-[4-(trifluoromethoxy)phenyl]-1H-1,2,4-triazol-3-yl]phenyl]ethyl]urea]
pest or weed control at 50 µg/cm2 ([1]; Table ABC (PC)): 50 to 100%
pest or weed control at 50 µg/cm2 ([2]; Table ABC (PC)): 50 to 100%

Cc1ccc(C(C)C)c(NC(=S)NC(=O)NCc2ccc(-c3ncn(-c4ccc(OC(F)(F)F)cc4)n3)cc2)c1 [F35]
mortality at 50 µg/cm2 [2]: 50 to 100%

CC(C)c1cc(F)ccc1NC(=S)NC(=O)NCCCc1ccc(-c2ncn(-c3ccc(OC(F)(F)F)cc3)n2)cc1 [PC103, 1-[(4-fluoro-2-isopropyl-phenyl)carbamothioyl]-3-[3-[4-[1-[4-(trifluoromethoxy)phenyl]-1H-1,2,4-triazol-3-yl]phenyl]propyl]urea]
pest or weed control at 50 µg/cm2 ([2]; Table ABC (PC)): 0 to 50%

Cc1ccc(-n2c(C)cs/c2=N\C(=O)NCc2ccc(-c3ncn(-c4ccc(OC(F)(F)F)cc4)n3)cc2)c(C(C)C)c1 [P20, (Z)-1-(3-(2-isopropyl-4-methylphenyl)-4-methylthiazol-2(3H)-ylidene)-3-(4-(1-(4-(trifluoromethoxy)phenyl)-1H-1,2,4-triazol-3-yl)benzyl)urea]
mortality at 50 µg/cm2 [1]: 50 to 100%

Cc1ccc(NC(=S)NC(=O)NCCCc2ccc(-c3ncn(-c4ccc(OC(F)(F)F)cc4)n3)cc2)c(C(C)C)c1 [PC102, 1-[(2-isopropyl-4-methyl-phenyl)carbamothioyl]-3-[3-[4-[1-[4-(trifluoromethoxy)phenyl]-1H-1,2,4-triazol-3-yl]phenyl]propyl]urea]
pest or weed control at 50 µg/cm2 ([2]; Table ABC (PC)): 50 to 100%

Cc1ccc(NC(=S)NC(=O)NCCCCc2cccc(-c3ncn(-c4ccc(OC(F)(F)F)cc4)n3)c2)c(C(C)C)c1 [PC180, 1-[(2-isopropyl-4-methyl-phenyl)carbamothioyl]-3-[4-[3-[1-[4-(trifluoromethoxy)phenyl]-1H-1,2,4-triazol-3-yl]phenyl]butyl]urea]
pest or weed control at 50 µg/cm2 ([2]; Table ABC (PC)): 0 to 50%

Cc1ccc(NC(=S)NC(=O)NCCCCc2ccc(-c3ncn(-c4ccc(OC(F)(F)F)cc4)n3)cc2)c(C)c1 [FB16, 1-[(2,4-dimethylphenyl)carbamothioyl]-3-[4-[4-[1-[4-(trifluoromethoxy)phenyl]-1H-1,2,4-triazol-3-yl]phenyl]butyl]urea]
pest or weed control at 50 µg/cm2 ([1]; Table ABC (FB)): 50 to 100%

COc1ccc(NC(=S)NC(=O)NCCc2cccc(-c3ncn(-c4ccc(OC(F)(F)F)cc4)n3)c2)c(C)c1 [PC87, 1-[(4-methoxy-2-methyl-phenyl)carbamothioyl]-3-[2-[3-[1-[4-(trifluoromethoxy)phenyl]-1H-1,2,4-triazol-3-yl]phenyl]ethyl]urea]
pest or weed control at 50 µg/cm2 ([1]; Table ABC (PC)): 50 to 100%

COc1ccc(C(C)C)c(NC(=S)NC(=O)NCCCCc2cccc(-c3ncn(-c4ccc(OC(F)(F)F)cc4)n3)c2)c1 [PC182, 1-[(2-isopropyl-5-methoxy-phenyl)carbamothioyl]-3-[4-[3-[1-[4-(trifluoromethoxy)phenyl]-1H-1,2,4-triazol-3-yl]phenyl]butyl]urea]
pest or weed control at 50 µg/cm2 ([1]; Table ABC (PC)): 50 to 100%

CC(C)c1cc(F)ccc1NC(=S)NC(=O)NCCCCc1cccc(-c2ncn(-c3ccc(OC(F)(F)F)cc3)n2)c1 [PC181, 1-[(4-fluoro-2-isopropyl-phenyl)carbamothioyl]-3-[4-[3-[1-[4-(trifluoromethoxy)phenyl]-1H-1,2,4-triazol-3-yl]phenyl]butyl]urea]
pest or weed control at 50 µg/cm2 ([2]; Table ABC (PC)): 0 to 50%

CCCc1ccc(C)cc1NC(=S)NC(=O)NCCCc1ccc(-c2ncn(-c3ccc(OC(F)(F)F)cc3)n2)cc1 [PC99, 1-[(5-methyl-2-propyl-phenyl)carbamothioyl]-3-[3-[4-[1-[4-(trifluoromethoxy)phenyl]-1H-1,2,4-triazol-3-yl]phenyl]propyl]urea]
pest or weed control at 50 µg/cm2 ([2]; Table ABC (PC)): 50 to 100%

Cc1ccc(C(C)C)c(N2C(=O)CS/C2=N\C(=O)NCCc2cccc(-c3ncn(-c4ccc(OC(F)(F)F)cc4)n3)c2)c1 [P81]
mortality at 50 µg/cm2 [1]: 50 to 100%
